The values below come from patent US20180168208A1 (priority 2014, published 2018).

Assay in all cases: cell-based
Assay [1] addresses T1, cat T1R1/T1R3 receptor (Felis catus, UniProt A0ABI7Z2I4).
T1 sequence (A0ABI7Z2I4 171-420): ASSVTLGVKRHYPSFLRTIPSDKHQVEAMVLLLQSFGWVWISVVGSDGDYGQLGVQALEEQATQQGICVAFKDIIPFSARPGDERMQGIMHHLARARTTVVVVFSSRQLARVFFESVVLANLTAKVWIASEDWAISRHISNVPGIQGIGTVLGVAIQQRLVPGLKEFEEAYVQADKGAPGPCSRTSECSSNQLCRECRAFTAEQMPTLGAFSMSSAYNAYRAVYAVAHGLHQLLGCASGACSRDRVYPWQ
T1 sequence (Q49KI5 25-865 E206Q/N523D/F654L partner): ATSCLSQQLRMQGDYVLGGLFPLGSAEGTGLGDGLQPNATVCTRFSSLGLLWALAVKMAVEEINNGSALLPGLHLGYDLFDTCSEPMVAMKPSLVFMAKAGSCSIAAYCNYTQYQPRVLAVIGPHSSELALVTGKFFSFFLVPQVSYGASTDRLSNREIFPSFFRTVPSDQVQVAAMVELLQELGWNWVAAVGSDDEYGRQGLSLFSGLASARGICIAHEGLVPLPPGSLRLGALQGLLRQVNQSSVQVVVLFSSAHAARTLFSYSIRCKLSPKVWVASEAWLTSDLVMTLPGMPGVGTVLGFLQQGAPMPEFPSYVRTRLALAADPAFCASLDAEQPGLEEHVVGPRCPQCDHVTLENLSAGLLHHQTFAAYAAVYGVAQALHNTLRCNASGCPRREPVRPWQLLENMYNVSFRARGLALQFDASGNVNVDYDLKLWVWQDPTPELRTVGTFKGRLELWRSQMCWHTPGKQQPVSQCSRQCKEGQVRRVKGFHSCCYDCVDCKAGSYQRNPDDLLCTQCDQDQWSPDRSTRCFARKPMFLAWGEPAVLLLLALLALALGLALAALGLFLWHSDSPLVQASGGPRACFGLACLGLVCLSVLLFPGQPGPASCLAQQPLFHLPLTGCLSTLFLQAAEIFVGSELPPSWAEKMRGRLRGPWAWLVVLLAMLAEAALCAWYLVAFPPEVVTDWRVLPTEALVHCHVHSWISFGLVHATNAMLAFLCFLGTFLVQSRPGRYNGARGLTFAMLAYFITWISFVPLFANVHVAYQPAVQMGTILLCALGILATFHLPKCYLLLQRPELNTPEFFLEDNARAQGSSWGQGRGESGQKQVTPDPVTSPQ
A digest of the protocol: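 HEK293 cells stably expressing T1R3 with inducible T1R1, treated with nucleotide derivatives alone or combined with amino acids and/or nucleotides. Activation read as intracellular calcium change by calcium-sensitive fluorescent dye and/or luminescent reporter. Cells expressing T1R3 without T1R1 served as control.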

The target of assay [2] is T1, cat T1R1/T1R3 receptor. The procedure:
[…] Activation of the T1R1/T1R3 receptor was detected by a change in intracellular calcium levels using a calcium sensitive fluorescent dye. Cells that express T1R3 but not T1R1 were used as a control. A FLIPR® Tetra or a FlexStation® 3 was used for data capture.
In each experiment, serial dilutions of up to 0.1 mM, 1 mM or 10 mM of the nucleotide derivative were added to the T1R1/T1R3-expressing cells.
The source holds these as a separate data set.

The target of the next assay is T1R1/T1R3 receptor (Felis catus, UniProt E3UMS2). The gist of the method: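 HEK293 cells stably expressing T1R3 with inducible T1R1 were given transmembrane compounds in serial dilutions up to 10 mM, alone or with amino acids and/or nucleotides. Receptor activation was read as an intracellular calcium change with a calcium-sensitive fluorescent dye; T1R3-only cells served as control.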

Where [3] appears, read: with 20 mM alanine, read-out: EC50- with Ala.
The mark [4] stands for this setting: test compound alone (in buffer), read-out: EC50- alone.

Structures can show the parent of a compound that is named as a salt. Where two headings read alike, the source gives them in different places. Bounds are passed on as bounds.

For `O=c1nc[nH]c2c1ncn2C1O[C@H](COP(=O)(O)OP(=O)(O)OP(=O)(O)O)[C@@H](O)[C@H]1O` (stereo partly drawn) [inosine triphosphate (ITP) trisodium salt], on cat T1R1/T1R3 receptor [1], the outcome was active, the EC50 stood at 80 µM, the “Max resp. (ΔF/F)” value is listed as 0.3 ΔF/F and the “Max. resp. % of IMP” value was 25.1 % of IMP. Further, the Threshold at cat T1R1/T1R3 receptor [1] is reported as 0.02 mM. The EC50 at cat T1R1/T1R3 receptor [2] (setting [3]) is 80 ± 10 µM.
Regarding `Nc1ncnc2c1ncn2[C@H]1C[C@H](OP(=O)(O)O)[C@@H](COP(=O)(O)O)O1` [2′-deoxyadenosine-3′, 5′-O-bisphosphate], on cat T1R1/T1R3 receptor [1], the “Max resp. (ΔF/F)” value was 0.8 ΔF/F, the “Max. resp. % of IMP” value is given as 76.4 % of IMP and the Threshold is reported as 0.005 mM. Besides, the EC50 at cat T1R1/T1R3 receptor [2] (setting [4]) was 20 µM.
For the compound `Nc1ncnc2c1ncn2C1OC(COP(O)(O)=S)C(O)C1O` (stereo not drawn) [adenosine 5′-O-thiomonophosphate, Adenosine 5′-O-thiomonophosphate], the EC50 on cat T1R1/T1R3 receptor [2] (setting [4]) is above 1000 µM; at cat T1R1/T1R3 receptor [2] (setting [3]), 60 µM.
Regarding `C[C@H](N)C(=O)O` [alanine], the EC50 on cat T1R1/T1R3 receptor [1] stood at 13600 ± 4300 µM; at T1R1/T1R3 receptor (EC50 (effect with 0.2 mM IMP)), 12.3 ± 1.3 mM; at T1R1/T1R3 receptor (EC50 (mM), +IMP (0.2 mM)) it was 12.3 mM; on cat T1R1/T1R3 receptor [2] (EC50- alone), 13600 µM. Also, the “Max resp % of Ala, +IMP (0.2 mM)” value at T1R1/T1R3 receptor (in the presence of 0.2 mM IMP, relative to alanine) was determined as 100.0%. Besides, the “Thres (mM), +IMP (0.2 mM)” value at T1R1/T1R3 receptor (threshold concentration in the presence of 0.2 mM IMP) turned out to be 3.0 mM.

As usually defined, the EC50 is the midpoint of the concentration-response curve.
